Measured values reported in patent publication US20260137736A1, “PROBIOTIC LACTOBACILLUS STRAIN COMPOSITIONS AND APPLICATIONS THEREFOR INCLUDING FOR LEAKY GUT AND INFLAMMATION” (priority 2021, published 2026).

Experiments:
L. reuteri growth [1] = test: Antimicrobial susceptibility profiling, broth microdilution MIC against clinically relevant antibiotics (EFSA cut offs); type: cell-based; design: unit not given here; conditions: for Minimum inhibitory concentration (MIC), L. reuteri PTA-126787: strain L. reuteri PTA-126787, two biological replicates; for Minimum inhibitory concentration (MIC), L. reuteri PTA-126788: strain L. reuteri PTA-126788, two biological replicates
Description: Antimicrobial susceptibility testing was performed using broth microdilution method, using LSB medium (Mueller Hinton broth containing 5% horse blood) following Clinical and Laboratory Standards Institute (CLSI, 28th edition) guidelines. Two-fold dilutions of the clinically relevant antibiotics (Clindamycin, Chloramphenicol, Erythromycin, Gentamicin, Kanamycin, Streptomycin, Tetracycline and Ampicillin, all purchased from Sigma Aldrich) were prepared in LSB medium. Approximately, 50 μL of 1×10^5 CFUs/mL of the L. reuteri cells were added into each well. “No antibiotic” and “medium” alone controls were included. […], Pseudomonas aeruginosa ATCC 27853, Staphylococcus aureus ATCC 29213, Enterococcus faecalis ATCC 29212, Streptococcus pneumonia ATCC 49619 and Lacticaseibacillus paracasei ATCC 334 were used as quality control organisms. The plates were incubated for 24-48 hours under microaerophilic conditions. […] The strains were classified as susceptible or resistant using the microbiological cut offs established by EFSA (35).

L. reuteri growth [2] = conditions: EFSA guideline species cut-off for L. reuteri; cited from earlier work

Compound | Minimum inhibitory concentration (MIC), L. reuteri PTA-126787 (L. reuteri growth [1]) | Minimum inhibitory concentration (MIC), L. reuteri PTA-126788 (L. reuteri growth [1]) | EFSA microbiological cut off values for L. reuteri (L. reuteri growth [2])
CC1(C)S[C@@H]2[C@H](NC(=O)[C@H](N)c3ccccc3)C(=O)N2[C@H]1C(=O)O [Ampicillin] | 1 | 1 | 2
O=C(N[C@H](CO)[C@H](O)c1ccc([N+](=O)[O-])cc1)C(Cl)Cl [Chloramphenicol] | 2 | 2 | 4
CCC[C@@H]1C[C@@H](C(=O)N[C@@H]([C@H]2O[C@H](SC)[C@H](O)[C@@H](O)[C@H]2O)[C@H](C)Cl)N(C)C1 [Clindamycin] | ≥0.06 | ≥0.06 | 
CC[C@H]1OC(=O)[C@H](C)[C@@H](O[C@H]2C[C@@](C)(OC)[C@@H](O)[C@H](C)O2)[C@H](C)[C@@H](O[C@@H]2O[C@H](C)C[C@H](N(C)C)[C@H]2O)[C@](C)(O)C[C@@H](C)C(=O)[C@H](C)[C@@H](O)[C@]1(C)O [Erythromycin] | 0.12 | 0.12 | 1
NC[C@H]1O[C@H](O[C@H]2[C@H](O)[C@@H](O[C@H]3O[C@H](CO)[C@@H](O)[C@H](N)[C@H]3O)[C@H](N)C[C@@H]2N)[C@H](O)[C@@H](O)[C@@H]1O [Kanamycin] | 16 | 16 | 
[H]/N=C(/N)N[C@H]1[C@H](O)[C@@H](O)[C@H](O[C@@H]2O[C@@H](C)[C@](O)(C=O)[C@H]2O[C@@H]2O[C@@H](CO)[C@H](O)[C@@H](O)[C@@H]2NC)[C@@H](N/C(N)=N\[H])[C@@H]1O [Streptomycin] | 8 | 8 | 64
CN(C)[C@@H]1C(O)=C(C(N)=O)C(=O)[C@@]2(O)C(O)=C3C(=O)c4c(O)cccc4[C@@](C)(O)[C@H]3C[C@@H]12 [Tetracycline] | 32/64 | 32/64 | 
Gentamicin | 1 | 1 | 8
